Data as given in patent US20230338454A1, “FORSYTHIA SUSPENSA COMPONENT AND OPTIONAL PANAX GINSENG COMPONENT AND THE APPLICATION” (priority 2020, published 2023).
Like-named read-outs stand apart in the source and are kept apart here.

Assays:
[1] = test system: Parainfluenza virus; test: Effect of drugs on viral cytopathic effect, effective antiviral rate (ER%); type: cell-based; conditions: Vero cells, 100TCID50, drug at maximum non-toxic concentration, 72 h, MTT
[2] = test system: sweat secretion of rat paw; test: Sweat secretion of rat paw (staining method); type: in vivo, Wistar rats; conditions: of 10 rats; dose not printed, gavage
From the text: There are sweat glands on the plantar skin of rats, so the changes in sweat secretion can be observed by the purple reaction between the iodine-starch mixture and the sweat. Five hundred Wistar rats, half male and half female, weighing 120-150 g, were taken in the study. […] The rats were placed in a homemade rat-fixing bag to expose both hind limbs. The dirt on the right paw was gently scrubbed with a cotton swab dipped in absolute ethanol. Except for the pilocarpine solution, which was given by subcutaneous injection, other groups were administered by gavage. One hour after administration (30 min after administration in the pilocarpine group), the sweat secreted from the right paw of rats in each group was gently cleaned with a dry cotton swab before the study and during struggling. The right paw was coated with Wotan-[…] reagent A solution (dissolve 2 g of iodine in 100 mL of absolute ethanol) and then coated with Wotan-[…] reagent B solution (mix 50 g of soluble starch and 100 mL of Ricinus conununis oil well) after reagent A was fully absorbed. […] At the end of the test, a rank-sum test was used to analyze the differences among the groups.

[3] = test system: NK cells (YAC-1 target cells); test: Determination of NK cell viability; type: in vivo, Kunming mice; conditions: 144 mg/kg; gavage once daily for 30 days; mice
From the text: One hundred and fifty-two healthy male mice were subjected to acclimation for 4 days before they were randomly divided into 19 groups: the negative control group, positive control group, forsythin group, 20(R)-ginsenoside Rg3 group, high, middle and low dose groups of panax ginseng-forsythia suspensa composition. […] The drugs were given by gavage, once daily for 30 days, and the negative control group was given the same volume of water. One hour after the last dose, the spleens of animals of each group were aseptically excised to prepare splenocyte suspension. […] Then, the concentration of splenocyte suspension was adjusted to 2×10^7 cells/mL. and the splenocyte suspension was added into a 96-well plate for culturing. […] A triplicate set of tubes was prepared for each of the above items. The 96-well plate was incubated at 37° C. in a 5% CO2 incubator for 4 h. After adding LDH matrix solution and 1 moL/L HCl, the solutions in each parallel well were combined, and the absorbance (ABS) was measured at 490 nm. The NK cell viability was calculated: NK cell viability (%) = (ABS reaction well -ABS natural release well)/(ABS maximum release well -ABS natural release well).

[4] = test system: Influenza virus; test: Effect of drugs on viral cytopathic effect, effective antiviral rate (ER%); type: cell-based
[5] = test system: enterovirus 71 (EV71); test: as above; type: cell-based; conditions: Vero cells, 100TCID50, drug at maximum non-toxic concentration, 72 h, MTT
[6] = test system: respiratory syncytial virus (RSV); test: as above; type: cell-based; conditions: Vero cells, 100TCID50, drug at maximum non-toxic concentration, 72 h, MTT
[7] = test system: carrageenan-induced paw swelling; test: Carrageenan-induced paw swelling in rats; type: in vivo, Wistar rats; conditions: sublingual intravenous injection; for Swelling rate (%) 15 min: 15 min after inflammation induction; for Swelling rate (%) 30 min: 30 min after inflammation induction; for Swelling rate (%) 60 min: 60 min after inflammation induction; for Swelling rate (%) 120 min: 120 min after inflammation induction; for Swelling rate (%) 180 min: 180 min after inflammation induction; for Swelling rate (%) 240 min: 240 min after inflammation induction; for Swelling rate (%) 300 min: 300 min after inflammation induction; for Swelling rate (%) 360 min: 360 min after inflammation induction
Experimental: Each group was administered by sublingual intravenous injection. Before the study, the normal volume of the right hind limb was measured by the capillary magnification method. To avoid errors, the measurement position should be fixed and performed by one person before and after administration. The average of the two measurements was taken as the normal volume of the right hind limb of the rats prior to administration. […] The inter-group t-test was performed by the difference percentage (swelling rate) of the plantar volume before and after the inflammation induction, and the differences among the groups were compared.

[8] = test system: parainfluenza virus; type: in vivo, Kunming mice
[9] = test system: epithelial cells of plantar sweat glands of rats; test: Sweat secretion of rat paw (histomorphology observation method); type: in vivo, Wistar rats; conditions: 1 h after gavage, dose not given
From the text: After sweat glands activation in rats, besides the increase of sweat secretion, the morphology of the epithelial cells of the sweat glands changes accordingly. Under the optical microscope, the increase and enlargement of vacuoles in the epithelial cells of the sweat glands are observed. Under an electron microscope, the enlarged vacuoles appear to be due to swelling and rupture of mitochondria, enlargement of fusion and secretory vesicles in the epithelial cells of sweat glands. The secretory activity of sweat glands could be understood by observing the histomorphology of the epithelial cells of plantar sweat glands of rats. Three hundred Wistar rats, half male and half female, weighing 120-160 g. were taken in the study. […] Except for the pilocarpine solution given by subcutaneous injection, other groups were administered by gavage. One hour after the control group was given 0.5% carboxymethyl cellulose, 30 min after the positive drug group was given pilocarpine, and 1 h after the administration of forsythin, ginsenoside Rg3 and the panax ginseng-forsythia suspensa composition, the right hind limb was immediately cut off at the level of the ankle joint. […] Observations were made under an optical microscope for changes in the epithelial cells of the plantar sweat glands of rats in each group, mainly the incidence of vacuoles. The statistical processing was performed by X^2 test, and differences among the groups were compared. The above study was repeated for 3 times.

[10] = test system: Adenovirus (AdV); test: Effect of drugs on viral cytopathic effect, effective antiviral rate (ER%); type: cell-based; conditions: Vero cells, 100TCID50, drug at maximum non-toxic concentration, 72 h, MTT
[11] = test system: influenza virus; type: in vivo, Kunming mice; conditions: 13.0 mg/kg/day by gavage, 5 days
[12] = test system: Vero cells; test: Cytotoxicity test of drugs on Vero cells (MTT); conditions: 72 h
[13] = test system: Coxsackievirus A16 (CoxA16); test: Effect of drugs on viral cytopathic effect, effective antiviral rate (ER%); type: cell-based; conditions: Vero cells, 100TCID50, drug at maximum non-toxic concentration, 72 h, MTT
[14] = test system: Herpes simplex virus type 1 (HSV-1); test: as above; type: cell-based; conditions: Vero cells, 100TCID50, drug at maximum non-toxic concentration, 72 h, MTT
[15] = […], 13.0 mg/kg/day by gavage, 5 days
[16] = lung suspension, mice infected with influenza virus

CC(C)=CCC[C@](C)(O)[C@H]1CC[C@]2(C)[C@@H]1[C@H](O)C[C@@H]1[C@@]3(C)CC[C@H](O[C@@H]4O[C@H](CO)[C@@H](O)[C@H](O)[C@H]4O[C@@H]4O[C@H](CO)[C@@H](O)[C@H](O)[C@H]4O)C(C)(C)[C@@H]3CC[C@]12C [20(R)-Ginsenoside Rg3, 20(R)-ginsenoside Rg3]
Effective Antiviral Rates (ER%) Parainfluenza virus [1]: 82.21^∗∗ % | Number of animals with sweat spots of each grade at 1 min after application of solution B: grade + [2]: 1 animals | Number of animals with sweat spots of each grade at 1 min after application of solution B: grade ++ [2]: 3 animals | Number of animals with sweat spots of each grade at 1 min after application of solution B: grade +++ [2]: 3 animals | Number of animals with sweat spots of each grade at 1 min after application of solution B: grade +++ (fifth grade column) [2]: 3 animals | Number of animals with sweat spots of each grade at 1 min after application of solution B: grade - [2]: 0 animals | Number of animals with sweat spots of each grade at 5 min after application of solution B: grade + [2]: 1 animals | Number of animals with sweat spots of each grade at 5 min after application of solution B: grade ++ [2]: 3 animals | Number of animals with sweat spots of each grade at 5 min after application of solution B: grade +++ [2]: 2 animals | Number of animals with sweat spots of each grade at 5 min after application of solution B: grade +++ (fifth grade column) [2]: 4 animals | Number of animals with sweat spots of each grade at 5 min after application of solution B: grade - [2]: 0 animals | NK cell viability (%) [3]: 37.34±7.21% | Effective Antiviral Rates (ER%) Influenza virus [4]: 74.06^∗∗ % | Effective Antiviral Rates (ER%) EV71 [5]: 74.66^∗∗ % | Effective Antiviral Rates (ER%) RSV [6]: 79.42^∗∗ % | Swelling rate (%) 15 min ([7]; 2.5 mg/kg): 14.8±8.74% | Swelling rate (%) 30 min ([7]; 2.5 mg/kg): 18.9±12.1% | Swelling rate (%) 60 min ([7]; 2.5 mg/kg): 23.5±13.3^∗▲▲ % | Swelling rate (%) 120 min ([7]; 2.5 mg/kg): 28.9±14.2^∗∗Δ▲ % | Swelling rate (%) 180 min ([7]; 2.5 mg/kg): 31.8±14.8^∗∗Δ▲ % | Swelling rate (%) 240 min ([7]; 2.5 mg/kg): 33.1±18.3^∗∗Δ▲ % | Swelling rate (%) 300 min ([7]; 2.5 mg/kg): 34.9±19.6^∗∗Δ▲ % | Swelling rate (%) 360 min ([7]; 2.5 mg/kg): 37.8±18.3^∗▲▲ % | Swelling rate (%) 15 min ([7]; 10.0 mg/kg): 14.9±6.13% | Swelling rate (%) 30 min ([7]; 10.0 mg/kg): 21.9±9.72% | Swelling rate (%) 60 min ([7]; 10.0 mg/kg): 27.1±13.5% | Swelling rate (%) 120 min ([7]; 10.0 mg/kg): 30.7±10.2^∗ % | Swelling rate (%) 180 min ([7]; 10.0 mg/kg): 33.8±12.1^∗ % | Swelling rate (%) 240 min ([7]; 10.0 mg/kg): 31.0±11.3^∗ % | Swelling rate (%) 300 min ([7]; 10.0 mg/kg): 35.8±13.5^∗ % | Swelling rate (%) 360 min ([7]; 10.0 mg/kg): 36.4±10.2% | Hemagglutinin titer (InX) [8, 15]: 23.79±1.072 | Inhibitory rate (%) of hemagglutination titer [8, 15]: 28.15% | Number of vacuolar sweat glands (number) [9]: 79 number | Vacuolation rate (%) [9]: 20.26^∗∗ % | Effective Antiviral Rates (ER%) ADV [10]: 51.07% | Hemagglutinin titer (InX) ([11]; […]): 22.61±1.059 | Inhibitory rate (%) of hemagglutination titer ([11]; […]): 30.22% | Half toxic concentration (TC50) [12]: 310 µg/mL | Maximum non-toxic concentration (TC0) [12]: 0.0048 g/L | Effective Antiviral Rates (ER%) CoxA16 [13]: 52.33% | Effective Antiviral Rates (ER%) HSV-I [14]: 83.61^∗∗ %

COc1ccc([C@H]2OCC3C2CO[C@H]3c2ccc(O[C@@H]3OC(CO)[C@@H](O)[C@H](O)C3O)c(OC)c2)cc1OC (stereo partly shown) [Forsythin]
Effective Antiviral Rates (ER%) Parainfluenza virus [1]: 84.96^∗∗ % | Number of animals with sweat spots of each grade at 1 min after application of solution B: grade + [2]: 2 animals | Number of animals with sweat spots of each grade at 1 min after application of solution B: grade ++ [2]: 2 animals | Number of animals with sweat spots of each grade at 1 min after application of solution B: grade +++ [2]: 2 animals | Number of animals with sweat spots of each grade at 1 min after application of solution B: grade +++ (fifth grade column) [2]: 4 animals | Number of animals with sweat spots of each grade at 1 min after application of solution B: grade - [2]: 0 animals | Number of animals with sweat spots of each grade at 5 min after application of solution B: grade + [2]: 1 animals | Number of animals with sweat spots of each grade at 5 min after application of solution B: grade ++ [2]: 2 animals | Number of animals with sweat spots of each grade at 5 min after application of solution B: grade +++ [2]: 2 animals | Number of animals with sweat spots of each grade at 5 min after application of solution B: grade +++ (fifth grade column) [2]: 5 animals | Number of animals with sweat spots of each grade at 5 min after application of solution B: grade - [2]: 0 animals | NK cell viability (%) [3]: 41.86±7.24% | Effective Antiviral Rates (ER%) Influenza virus ([4]; Vero cells, 100TCID50, drug at maximum non-toxic concentration, 72 h, MTT): 75.38^∗∗ % | Effective Antiviral Rates (ER%) EV71 [5]: 84.85^∗∗ % | Effective Antiviral Rates (ER%) RSV [6]: 80.40^∗∗ % | Swelling rate (%) 15 min ([7]; 10.0 mg/kg): 12.9±8.41% | Swelling rate (%) 30 min ([7]; 10.0 mg/kg): 19.9±9.55% | Swelling rate (%) 60 min ([7]; 10.0 mg/kg): 21.8±11.8 % | Swelling rate (%) 120 min ([7]; 10.0 mg/kg): 28.9±14.0^∗ % | Swelling rate (%) 180 min ([7]; 10.0 mg/kg): 30.8±15.4^∗ % | Swelling rate (%) 240 min ([7]; 10.0 mg/kg): 29.9±11.1^∗ % | Swelling rate (%) 300 min ([7]; 10.0 mg/kg): 33.5±10.0^∗ % | Swelling rate (%) 360 min ([7]; 10.0 mg/kg): 32.2±11.9^∗ % | Hemagglutinin titer (InX) ([8]; mouse, in vivo, 13 mg/kg/day): 23.17±1.059 | Inhibitory rate (%) of hemagglutination titer ([8]; mouse, in vivo, 13 mg/kg/day): 30.01% | Number of vacuolar sweat glands (number) [9]: 86 number | Vacuolation rate (%) [9]: 22.15^∗∗ % | Effective Antiviral Rates (ER%) ADV [10]: 75.14^∗∗ % | Hemagglutinin titer (InX) [11, 16]: 22.06±1.120 | Inhibitory rate (%) of hemagglutination titer [11, 16]: 31.90% | Half toxic concentration (TC50) [12]: 550 µg/mL | Maximum non-toxic concentration (TC0) [12]: 0.0066 g/L | Effective Antiviral Rates (ER%) CoxA16 [13]: 75.08^∗∗ % | Effective Antiviral Rates (ER%) HSV-I [14]: 85.00^∗∗ %
